Measured values from patent publication US11731977B2, “SGC stimulators” (Cyclerion Therapeutics, Inc., priority 2016, dated 2023).
Marks after values point to notes of the source that are not given here.

Tested on: cGMP in rat CSF
Assay: Rat CSF biomarker (cGMP) measurement (Example 7)
Format: in vivo
Experimental: This experiment was to determine the effect of different doses of a compound of the invention on the cGMP response as well as the compound concentration in rat CSF and compound concentration in rat plasma. Protocol. Each rat was sampled one time or multiple times with 3 or more days in between each dosing. Day before the experiment. Fast rats overnight with ad libitum access to water. Day of the experiment. Compound and cyclic guanosine monophosphate (cGMP) in rat CSF was determined following oral dosing. Male Sprague-Dawley rats with an indwelling catheter placed in the cisterna magna were used. The rats were dosed with 0 mg/kg (n=15), 3 mg/kg (n=19) and 10 mg/kg (n=20) of a compound of the invention formulated as a suspension in 0.5% methylcellulose, 0.5% Tween80. PO doses were administered by oral gavage and delivered to the stomach using a syringe and gavage tube. Following oral dosage administration, the gavage tube was flushed with approximately 0.5 mL of water to ensure complete delivery of the full dose. Plasma and CSF samples were collected under isoflurane anesthesia as follows: samples of CSF were collected at 1 hour and 6 hours post-dosing and samples of blood were collected 1 h post-dosing. CSF samples were collected through the intracisternal catheter. Approximately 20 μL of CSF and discard (dead volume is 14-16 μL); then withdraw approximately 50 μL of CSF in eppendorf tubes containing 5 μL of glacial acetic acid. Snap freeze CSF by immersion in liquid nitrogen. Blood samples (0.25 mL) were collected through retro-orbital sampling. These samples were kept on ice until processed for plasma. Blood samples were centrifuged at 3200 rpm for 10 minutes at approximately 5° C. within 1 hour of collection. Plasma was directly transferred to a 96-well plate tube (0.125 mL). Plug caps were placed on the tubes and the tubes frozen at approximately −70° C. and stored until analysis. Plasma was collected and analyzed for the presence of a compound. Quantitation of Compounds and cGMP. The compound of the invention, cGMP and the internal standard were extracted from plasma and CSF by precipitation. Samples were analyzed using liquid chromatography (LC) with tandem mass spectrometric detection (MS/MS) using electrospray ionization. The standard curve range was from 1 to 1000 ng/mL. Results of the compounds described herein in this assay are illustrated in Table 7 below (3 and 10 mg/kg dose). Statistics were determined by planned comparison t-tests.

Compound: Fc1ccccc1Cc1nc(-c2nc(C(F)(F)F)n[nH]2)cn2ccnc12 [Compound I-1, 8-(2-fluorobenzyl)-6-(3-(trifluoromethyl)-1H-1,2,4-triazol-5-yl)imidazo[1,2-a]pyrazine]
- CSF Conc. (nM @ 1 h) (3 mg/kg PO): 7.2* nM
- CSF Conc. (nM @ 6 h) (3 mg/kg PO): 6.7 nM
- CSF Conc. (nM @ 1 h) (10 mg/kg PO): 14.8** nM
- CSF Conc. (nM @ 6 h) (10 mg/kg PO): 13.8* nM
